Laboratory results: patent US8211922B2, “1-methylnicotinamide derivatives and formulations for treatment of lipoprotein abnormalities” (Cortria Corporation, priority 2005, dated 2012)
Values joined by “and” are separate entries in the source; they are usually repeats but may differ in a detail not shown here. Equal values may be shown once.

Legend:
[1] = tested on: dyslipidemic and cardiologic patients; test: Anti-atherogenic effect of MNA after short-term use (2 weeks), plasma lipids in patients; format: in vivo, human; settings: for HDL change: after 2 weeks therapy
Procedure: The anti-atherogenic effect of MNA was investigated in […] dyslipidemic and cardiologic patients. The enrollment criteria was: high level of TG (˜250 mg/dl) and/or high level of total cholesterol (TC) (≧200 mg/dl). The mean age of the patients was 57.5 (range 37-81 years). The enrolled patients were divided into two groups: dyslipidemic patients (4 patients) and dyslipidemic patients after acute coronary failure (myocardial infarction) (12 patients). The patients were treated with MNA for 2 weeks. The MNA was administered orally, three times a day, one capsule (30 mg MNA) after meal. The 16 patients have finished clinical examination.
The plasma levels of TC, TG, and HDL were measured at baseline and after 2 weeks of therapy. The level of LDL was measured in those cases where it was possible (due to high TG level).
Patient nos. 1-4 were dyslipidemic. Patient nos. 5-16 were dyslipidemic patients after acute coronary failure (myocardial infarction).

dyslipidemic patients = test: Anti-atherogenic effect of MNA after a single administration, plasma lipids; format: in vivo, human; settings: for HDL % / TG % / TG/HDL % / Total Cholesterol %: change vs time 0; for TG: person
Procedure: The anti-atherogenic effect of NINA after single administration was also investigated in dyslipidemic patients. The patient was treated with 100 mg MNA. The plasma levels of TC, TG, and HDL were measured at baseline and after 1 and 3 hours. The level of LDL was not measured due to high TG level. […] The increase of the HDL (24.8 vs. 29.0 mg/dl) was observed after the administration. The significant reduction of TG/HDL ratio (24.0 vs. 16.5) was observed.

[2] = tested on: rats fed a hypertriglyceridemic diet; test: Rat model of hypertriglyceridemia (high-fructose diet), plasma triglyceride; format: in vivo; settings: Wistar rats, AIN93 diet with 60% fructose 8 weeks; 100 mg/kg MNA in drinking water for the last 4 weeks; FIG. 1
Procedure: Rats fed a high-fructose diet develop hypertriglyceridemia, insulin resistance and a mild degree of hypertension abnormalities that mimic metabolic syndrome in humans (Boehm and Claudi-Boehm, Scand J Clin Lab Invest Suppl. 2005; 240:3-13). […] One group was fed a control diet (basal AIN93) for 8 weeks, the second was fed an AIN93 diet supplemented with 60% fructose for 8 weeks, and the third was fed an AIN93 diet supplemented with 60% fructose that was additionally treated with 100 mg/kg of MNA for the last 4 weeks (after hypertriglicerydemia fully develops) and was given to drinking water. At the end of experiments rats were anesthetized, and blood was withdrawn and anticoagulated. Triglyceride level in plasma was measured by standard spectophotometric technique using commercially available kits.

[3] = tested on: patients on permanent therapy with simvastatin; test: Safety of co-administration of MNA with statins; format: in vivo, human
Procedure: A group of 10 patients (4 females and 6 males, ages 38-79) on permanent therapy with simvastatin (10-20 mg/day) were selected for the study. In addition to simvastatin each patient received MNA in daily dose of 90 mg/day for six weeks. The clinical chemistry parameters were monitored during three doctor's visits: two weeks before, just before and after six weeks of MNA administration.

PGI2 = PGI2 release
various cell lines = test: Cytoprotection of cell lines; format: cell-based
Chemical stability = format: physicochemical
[4] = Toxicity and tolerability
[5] = 30 mg MNA orally three times a day, after 2 weeks, individual patients
[6] = 30 mg MNA orally three times a day, after 2 weeks, individual patients nos. 1-16
[7] = change visit 2 vs visit 1, 30 mg MNA orally three times a day, 2 weeks, individual patients nos. 1-16
[8] = change visit 2 vs visit 1, 2 weeks, individual patients
[9] = mean of 16 patients, 30 mg MNA orally three times a day, after 2 weeks
[10] = mean of 16 patients, after 2 weeks
[11] = mean of 16 patients, change visit 2 vs visit 1, 2 weeks
[12] = MNA 90 mg/day for six weeks co-administered with simvastatin (10-20 mg/day), 10 patients

## 1-methylnicotinamide chloride [MNA]
[1]; [5]
  Glucose visit 2: 152 mg/dl and 81 mg/dl and 89 mg/dl (2×) and 90 mg/dl and 101 mg/dl and 129 mg/dl and 96 mg/dl (2×) and 82 mg/dl and 113 mg/dl and 128 mg/dl and 97 mg/dl and 111 mg/dl
  LDL visit 2: 162 mg/dL and 171 mg/dL and 114 mg/dL and 82 mg/dL and 121 mg/dL and 111 mg/dL and 81 mg/dL and 149 mg/dL and 178 mg/dL and 148 mg/dL
  Uric Acid visit 2: 7.2 mg/dL and 4.4 mg/dL and 8.9 mg/dL and 9.6 mg/dL and 6.6 mg/dL and 5.7 mg/dL and 5.3 mg/dL and 5.31 mg/dL and 5.26 mg/dL and 5.8 mg/dL and 7.33 mg/dL
[1]; [6]
  HDL visit 2: 40 mg/dl and 41 mg/dl (2×) and 59 mg/dl and 31 mg/dl and 45 mg/dl (3×) and 46 mg/dl and 37 mg/dl and 36 mg/dl and 29 mg/dl and 38 mg/dl and 67 mg/dl and 72 mg/dl and 42 mg/dl
  Total Cholesterol visit 2: 251 mg/dL and 260 mg/dL and 208 mg/dL and 155 mg/dL and 130 mg/dL and 203 mg/dL and 194 mg/dL and 159 mg/dL and 253 mg/dL and 271 mg/dL and 229 mg/dL and 146 mg/dL and 280 mg/dL and 188 mg/dL and 243 mg/dL and 231 mg/dL
[1]; after 2 weeks therapy (baseline 9.60)
  TG/HDL ratio: 5.25
[1]; group of dyslipidemic patients
  HDL change: substantial increase
[1]; group of dyslipidemic patients after acute coronary failure (myocardial infarction)
  HDL change: not observed
[1]; change visit 2 vs visit 1, 30 mg MNA orally three times a day, 2 weeks, individual patients
  LDL %: 18.25% and 23.91% and 107.27% and −40.58% and 0.83% and −23.97% and −35.71% and 14.62% and 78.00% and 12.98%
[1]; [7]
  HDL %: 11.11% and 7.89% and −1.67% and −8.82% and −25.45% and −18.18% and −8.00% and −15.91% and −14.29% (2×) and 9.76% and 0.00% and −22.45% and 31.37% and 36.36% and 71.43%
  Total Cholesterol %: 5.91% and −5.11% and 8.33% and −38.74% and −43.97% and −17.14% and −24.51% and −31.17% and −4.17% and −12.58% and 3.62% and −39.67% and −6.98% and 2.73% and −17.06% and −4.94%
[1]; [8]
  Glucose %: −8.98% and 2.53% and 7.23% and −25.62% and 5.21% and 17.27% and −19.33% and 0.00% and 9.09% and 18.95% and 8.54% and −10.49% and −1.02% and 4.72%
  Uric Acid %: −16.28% and 2.33% and −38.62% and 37.14% and 6.45% and 0.00% and −23.19% and 0.95% and −2.59% and −1.69% and 21.96%
[1]; change visit 2 vs visit 1, 2 weeks, individual patients nos. 1-16
  TG/HDL %: −32.29% and −54.61% and −54.01% and −43.95% and −41.63% and −36.79% and −33.19% and −19.29% and −14.21% and −60.02% and −15.08% and −68.96% and −26.10% and −59.00% and −84.18% and −3.72%
[1]; [9]
  TG visit 2, Mean Value: 216 mg/dL and 216.31 mg/dL
  Total Cholesterol visit 2, Mean Value: 212 mg/dL and 212.56 mg/dL
[1]; [10]
  HDL visit 2, Mean Value: 44.63 mg/dL
  TG/HDL visit 2, Mean Value: 5.25
[1]; [11]
  HDL %, Mean Value: 0.85%
  TG %, Mean Value: −47.2% and −47.18%
  TG/HDL %, Mean Value: −45.32%
  Total Cholesterol %, Mean Value: −14.50%
[1]; mean of patients with LDL measured, after 2 weeks
  LDL visit 2, Mean Value: 131.70 mg/dL
[1]; mean of patients with LDL measured, change visit 2 vs visit 1, 2 weeks
  LDL %, Mean Value: 7.86%
Dyslipidemic patients; after the administration of 100 mg MNA (base-line 24.0)
  TG/HDL ratio: 16.5
Dyslipidemic patients; after the administration of 100 mg MNA (base-line 24.8)
  HDL: 29.0 mg/dL
Dyslipidemic patients; after the administration of 100 mg MNA (base-line 596)
  TG level: 479 mg/dL
Dyslipidemic patients; single 100 mg MNA, 1 h
  HDL %: 2.82%
  TG %: −5.03%
  TG/HDL %: −7.64%
  Total Cholesterol %: 1.08%
  TG: 566 mg/dL
  HDL: 25.5 mg/dL
  TG/HDL: 22.20
  Total Cholesterol: 188 mg/dL
Dyslipidemic patients; single 100 mg MNA, 3 h
  HDL %: 16.94%
  TG %: -19.63%
  TG/HDL %: −31.27%
  Total Cholesterol %: 4.84%
  TG: 479 mg/dL
  HDL: 29.0 mg/dL
  TG/HDL: 16.52
  Total Cholesterol: 195 mg/dL
[2]
  Triglyceride level in plasma: lowers triglyceride levels
[3]; [12]
  Clinical chemistry parameters (liver enzymes AST and ALT, creatinine, urea, glucose and homocysteine): not changed within the measurements accuracy
  Negative effects on patient examination: no negative effects were observed
[3]; MNA co-administration with statins
  Adverse synergistic effects: does not result in any adverse synergistic effects
PGI2
  PGI2 release: releases PGI2
Various cell lines
  Cytoprotection: cytoprotective
Chemical stability
  Chemical stability: chemically very stable
[4]
  Tolerability: very well tolerated
  Toxicity: non-toxic
